# Active and inactive are the calls of the source.
# What was measured:
# [1] = target: FAD-linked sulfhydryl oxidase ALR (Homo sapiens, UniProt P55789); experiment: inhibitors of human ALR sulfhydryl oxidase, dose response, biochemical, H2O2 detection, luminescence, cherry-pick (AID 493248)
# Fatty acid synthase [2] = target: T1, Fatty acid synthase (Homo sapiens, UniProt P49327); experiment: FAS thioesterase domain inhibitors, dose response, biochemical, kinetic fluorescence intensity (AID 624326); type: functional;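 note: rate of fluorescence rise from hydrolysis of a fluorogenic O-methyl fluorescein ester substrate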
# Fatty acid synthase [3] = target: T1, Fatty acid synthase; experiment: FAS thioesterase domain inhibitors, dose response, biochemical, endpoint fluorescence intensity, uHTS hits (AID 624327); type: functional;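 note: fluorescence from hydrolysis of an O-methyl fluorescein acyl ester substrate by the enzyme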
# Streptococcus = experiment: Group A Streptococcus viability loss, dose response, counter-screen for streptokinase expression inhibitor project, luminescence, BacTiterGlo (AID 1915); type: functional, organism-based;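 note: potency for reduction of bacterial viability or growth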
# [4] = system: Streptococcus sp. 'group A'; experiment: growth inhibition of control SK(-) GAS strain, dose response, counter-screen for streptokinase expression inhibitor project, luminescence, kanamycin, BacTiterGlo, confirmation (AID 1900); type: functional, organism-based
# Streptokinase A = target: T2, Streptokinase A (Streptococcus pyogenes serotype M1, UniProt P10520); experiment: S. pyogenes streptokinase expression inhibitors, potency, dose response, plasminogen activation absorbance, OD405 (AID 1914); type: functional, Streptococcus pyogenes M1 GAS;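 note: secreted streptokinase activity via plasminogen activation per viability signal from cell pellet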
# T2 sequence (P10520 whole entry): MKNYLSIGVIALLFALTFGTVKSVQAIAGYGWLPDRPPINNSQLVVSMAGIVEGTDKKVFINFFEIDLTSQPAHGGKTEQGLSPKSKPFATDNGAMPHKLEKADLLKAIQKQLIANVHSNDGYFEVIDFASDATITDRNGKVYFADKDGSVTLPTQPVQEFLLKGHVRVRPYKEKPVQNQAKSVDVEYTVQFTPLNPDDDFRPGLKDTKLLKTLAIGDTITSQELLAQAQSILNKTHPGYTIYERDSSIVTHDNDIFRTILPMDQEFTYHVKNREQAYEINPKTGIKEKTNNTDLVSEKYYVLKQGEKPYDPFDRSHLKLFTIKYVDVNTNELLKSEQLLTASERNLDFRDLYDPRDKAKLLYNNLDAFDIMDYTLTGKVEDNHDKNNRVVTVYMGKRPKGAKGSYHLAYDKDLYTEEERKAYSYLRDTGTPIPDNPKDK
# [5] = target: T3, Polyadenylate-binding protein 1 (Homo sapiens, UniProt P11940); experiment: PABP1 MLLE–PAM2 binding inhibitor potency, dose response, biochemical, fluorescence polarization, FITC-PAM2 peptide (AID 602259); type: functional; conditions: read-out: IC50_Mean
# [6] = target: T3, Polyadenylate-binding protein 1; experiment: PABP1 MLLE–PAM2 interaction inhibitors, dose response, miRNA deadenylation inhibitor project, biochemical, fluorescence polarization, Cy5-PAM2 peptide, secondary (AID 602260); type: functional; conditions: read-out: IC50_Mean
# [7] = target: T4, Zinc finger protein mex-5 (Caenorhabditis elegans, UniProt Q9XUB2); experiment: MEX-5/TCR-2 RNA interaction inhibitors, dose response, biochemical, C. elegans, fluorescence polarization (AID 1960)
# T4 sequence (Q9XUB2 whole entry): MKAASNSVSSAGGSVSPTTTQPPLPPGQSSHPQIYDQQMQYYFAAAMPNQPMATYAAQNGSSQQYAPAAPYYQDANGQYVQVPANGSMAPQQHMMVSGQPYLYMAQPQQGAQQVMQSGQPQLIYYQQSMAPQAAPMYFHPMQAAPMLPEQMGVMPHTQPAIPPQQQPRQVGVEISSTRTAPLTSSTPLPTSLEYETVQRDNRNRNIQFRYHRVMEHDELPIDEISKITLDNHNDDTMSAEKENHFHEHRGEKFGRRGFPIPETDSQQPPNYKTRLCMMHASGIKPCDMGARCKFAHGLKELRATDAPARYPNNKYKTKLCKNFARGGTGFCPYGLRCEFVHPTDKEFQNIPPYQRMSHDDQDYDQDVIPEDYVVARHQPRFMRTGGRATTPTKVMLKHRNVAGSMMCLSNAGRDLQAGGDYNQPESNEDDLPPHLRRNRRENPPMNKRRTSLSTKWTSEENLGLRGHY
# [8] = target: T5, RNA-binding protein pos-1 (Caenorhabditis elegans, UniProt G5EF15); experiment: inhibitors of POS-1/mex-3 RNA binding, dose response, biochemical, fluorescence polarization (AID 1964);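 note: purified POS-1 fused to maltose binding protein made in E. coli; potency of compounds blocking POS-1 binding to fluorescent RNA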
# T5 sequence (G5EF15 whole entry): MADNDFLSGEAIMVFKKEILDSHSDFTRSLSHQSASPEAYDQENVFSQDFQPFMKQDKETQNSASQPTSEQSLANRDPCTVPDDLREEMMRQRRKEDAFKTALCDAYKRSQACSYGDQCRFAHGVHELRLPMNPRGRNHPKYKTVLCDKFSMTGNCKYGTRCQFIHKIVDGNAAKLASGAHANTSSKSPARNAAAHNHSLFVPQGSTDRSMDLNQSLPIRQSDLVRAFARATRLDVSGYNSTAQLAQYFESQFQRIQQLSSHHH
# cells [9] = type: functional, cell-based
# cells [10] = type: functional, cell-based; remark: listed apart in the source
# [11] = LGR2 antagonists, dose response, cell-based, HEK293, CRE-luciferase reporter, cherry pick, set 2 (AID 743343); type: functional;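 note: transfected cells were stimulated with diluted bursicon conditioned medium after compound addition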
# [12] = A549 cell cytotoxicity, dose response, cytotoxicity control, plate reader, cherry-pick, antagonist series (AID 743412); type: functional, cell-based
# [13] = MC4R antagonists, dose response, counter-screen for LGR2 antagonist project, cell-based, plate reader, cherry pick (AID 743444); type: functional;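 note: transfected HEK 293 cells stimulated with alpha-MSH peptide; potency of inhibitors of the alpha-MSH evoked signal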
# [14] = cytotoxicity toward DRD oncogenic fibroblasts, dose response, cell-based, non-viral oncogenic, luminescence (AID 1934); type: functional; conditions: Homo sapiens
# BJ [15] = experiment: cells; type: functional, cell-based; conditions: Homo sapiens
# BJ [16] = experiment: cytotoxicity toward BJ-TERT fibroblasts, dose response, cell-based, RAS-independent, luminescence (AID 1933); type: functional; conditions: Homo sapiens
# BJ [17] = experiment: cytotoxicity toward BJ-TERT-LT-ST fibroblasts, dose response, cell-based, RAS-independent, luminescence (AID 1935); type: functional; conditions: Homo sapiens;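 note: BJ fibroblasts immortalized with TERT plus LT and ST oncogenes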
# [18] = target: Glucose-6-phosphate 1-dehydrogenase (Homo sapiens, UniProt P11413); experiment: human G6PD enzyme inhibitors, dose response, selectivity assay for P. falciparum G6PD inhibitor project, biochemical, fluorescence (AID 504792); type: functional
# Nonstructural protein 1 = Nonstructural protein 1 (Influenza A virus, UniProt Q194T2); type: functional, Influenza A virus (A/California/07/2009(H1N1))
# [19] = target: Glyceraldehyde-3-phosphate dehydrogenase (Homo sapiens, UniProt P04406)
# Genome polyprotein = Genome polyprotein (dengue virus type 2, UniProt P29990); experiment: Dengue-2 NS5 methyltransferase inhibitors, primary screen, biochemical, confirmation dose response (AID 588689); type: functional
# [20] = THP-1 cell cytotoxicity, dose response, cytotoxicity control for non-replicating M. tuberculosis project (AID 489025); type: functional
# [21] = control 3'UTR Renilla luciferase suppression, dose response, counter-screen for Shn3 inhibitor project, cell-based, Clone20-Shn3RL, cherry-picked (AID 624133); type: functional
# [22] = Shn3 3'UTR reporter inhibitors, dose response, cell-based, Clone20 osteoblasts, firefly luciferase, cherry-picked (AID 624132); type: functional;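 note: firefly luciferase luminescence from reporter carrying the Shn3 3'UTR in osteoblasts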
# Glyceraldehyde-3-phosphate dehydrogenase, sequence (P04406 whole entry): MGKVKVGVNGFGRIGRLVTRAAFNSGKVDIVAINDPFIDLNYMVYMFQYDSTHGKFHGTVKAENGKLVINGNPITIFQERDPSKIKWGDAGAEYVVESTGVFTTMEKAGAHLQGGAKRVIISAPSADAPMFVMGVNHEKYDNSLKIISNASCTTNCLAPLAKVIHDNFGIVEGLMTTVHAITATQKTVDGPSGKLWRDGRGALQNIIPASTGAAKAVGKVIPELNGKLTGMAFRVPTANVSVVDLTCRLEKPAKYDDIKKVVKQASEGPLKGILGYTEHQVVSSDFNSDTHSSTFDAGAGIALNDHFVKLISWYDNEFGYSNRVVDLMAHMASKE
# FAD-linked sulfhydryl oxidase ALR, sequence (P55789 whole entry, the tested form may be a part): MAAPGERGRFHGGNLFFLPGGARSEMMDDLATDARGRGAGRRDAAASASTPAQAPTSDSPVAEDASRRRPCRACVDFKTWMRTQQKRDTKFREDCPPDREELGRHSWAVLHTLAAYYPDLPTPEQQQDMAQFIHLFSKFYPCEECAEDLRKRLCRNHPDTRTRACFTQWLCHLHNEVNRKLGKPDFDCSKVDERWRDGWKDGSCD
# T3 sequence (P11940 whole entry): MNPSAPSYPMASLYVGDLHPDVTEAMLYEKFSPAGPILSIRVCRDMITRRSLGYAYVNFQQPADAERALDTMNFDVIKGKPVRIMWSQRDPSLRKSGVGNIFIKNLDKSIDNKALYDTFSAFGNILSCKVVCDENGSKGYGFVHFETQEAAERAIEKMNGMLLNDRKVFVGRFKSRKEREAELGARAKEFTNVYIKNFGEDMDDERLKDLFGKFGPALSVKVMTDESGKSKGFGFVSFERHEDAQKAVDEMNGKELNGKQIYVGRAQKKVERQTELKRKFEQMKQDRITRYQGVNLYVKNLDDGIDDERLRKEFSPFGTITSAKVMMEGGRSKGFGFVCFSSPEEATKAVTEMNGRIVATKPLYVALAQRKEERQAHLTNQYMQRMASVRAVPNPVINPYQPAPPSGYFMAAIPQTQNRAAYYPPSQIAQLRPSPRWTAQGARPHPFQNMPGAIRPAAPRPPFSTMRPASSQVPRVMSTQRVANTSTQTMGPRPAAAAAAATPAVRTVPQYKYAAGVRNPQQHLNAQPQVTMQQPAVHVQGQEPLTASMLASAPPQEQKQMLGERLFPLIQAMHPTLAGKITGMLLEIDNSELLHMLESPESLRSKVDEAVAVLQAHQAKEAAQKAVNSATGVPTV
# Genome polyprotein, sequence (P29990 2492-3391 limits assumed): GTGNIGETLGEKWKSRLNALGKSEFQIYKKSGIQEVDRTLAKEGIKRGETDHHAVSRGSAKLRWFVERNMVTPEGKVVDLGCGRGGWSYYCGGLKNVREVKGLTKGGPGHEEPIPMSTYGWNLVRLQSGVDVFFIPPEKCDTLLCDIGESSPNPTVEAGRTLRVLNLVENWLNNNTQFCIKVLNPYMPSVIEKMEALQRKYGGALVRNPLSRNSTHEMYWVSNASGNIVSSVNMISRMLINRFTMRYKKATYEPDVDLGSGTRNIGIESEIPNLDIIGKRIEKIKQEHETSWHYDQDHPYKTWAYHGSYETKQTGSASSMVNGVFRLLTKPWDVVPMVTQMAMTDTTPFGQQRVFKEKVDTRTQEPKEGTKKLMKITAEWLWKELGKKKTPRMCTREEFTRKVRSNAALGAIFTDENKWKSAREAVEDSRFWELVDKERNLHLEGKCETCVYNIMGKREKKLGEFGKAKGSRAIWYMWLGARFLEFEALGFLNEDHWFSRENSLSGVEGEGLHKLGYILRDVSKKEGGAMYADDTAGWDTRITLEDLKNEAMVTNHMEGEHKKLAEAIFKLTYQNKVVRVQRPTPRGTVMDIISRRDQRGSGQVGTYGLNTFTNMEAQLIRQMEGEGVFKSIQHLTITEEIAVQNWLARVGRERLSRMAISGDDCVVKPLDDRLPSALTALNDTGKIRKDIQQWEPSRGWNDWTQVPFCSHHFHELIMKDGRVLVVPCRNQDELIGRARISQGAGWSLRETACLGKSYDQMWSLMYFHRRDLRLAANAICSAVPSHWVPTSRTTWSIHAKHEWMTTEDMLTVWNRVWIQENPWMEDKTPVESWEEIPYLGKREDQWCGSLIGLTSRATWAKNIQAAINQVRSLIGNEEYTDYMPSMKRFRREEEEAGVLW
# T1 sequence (P49327 whole entry, the tested form may be a part): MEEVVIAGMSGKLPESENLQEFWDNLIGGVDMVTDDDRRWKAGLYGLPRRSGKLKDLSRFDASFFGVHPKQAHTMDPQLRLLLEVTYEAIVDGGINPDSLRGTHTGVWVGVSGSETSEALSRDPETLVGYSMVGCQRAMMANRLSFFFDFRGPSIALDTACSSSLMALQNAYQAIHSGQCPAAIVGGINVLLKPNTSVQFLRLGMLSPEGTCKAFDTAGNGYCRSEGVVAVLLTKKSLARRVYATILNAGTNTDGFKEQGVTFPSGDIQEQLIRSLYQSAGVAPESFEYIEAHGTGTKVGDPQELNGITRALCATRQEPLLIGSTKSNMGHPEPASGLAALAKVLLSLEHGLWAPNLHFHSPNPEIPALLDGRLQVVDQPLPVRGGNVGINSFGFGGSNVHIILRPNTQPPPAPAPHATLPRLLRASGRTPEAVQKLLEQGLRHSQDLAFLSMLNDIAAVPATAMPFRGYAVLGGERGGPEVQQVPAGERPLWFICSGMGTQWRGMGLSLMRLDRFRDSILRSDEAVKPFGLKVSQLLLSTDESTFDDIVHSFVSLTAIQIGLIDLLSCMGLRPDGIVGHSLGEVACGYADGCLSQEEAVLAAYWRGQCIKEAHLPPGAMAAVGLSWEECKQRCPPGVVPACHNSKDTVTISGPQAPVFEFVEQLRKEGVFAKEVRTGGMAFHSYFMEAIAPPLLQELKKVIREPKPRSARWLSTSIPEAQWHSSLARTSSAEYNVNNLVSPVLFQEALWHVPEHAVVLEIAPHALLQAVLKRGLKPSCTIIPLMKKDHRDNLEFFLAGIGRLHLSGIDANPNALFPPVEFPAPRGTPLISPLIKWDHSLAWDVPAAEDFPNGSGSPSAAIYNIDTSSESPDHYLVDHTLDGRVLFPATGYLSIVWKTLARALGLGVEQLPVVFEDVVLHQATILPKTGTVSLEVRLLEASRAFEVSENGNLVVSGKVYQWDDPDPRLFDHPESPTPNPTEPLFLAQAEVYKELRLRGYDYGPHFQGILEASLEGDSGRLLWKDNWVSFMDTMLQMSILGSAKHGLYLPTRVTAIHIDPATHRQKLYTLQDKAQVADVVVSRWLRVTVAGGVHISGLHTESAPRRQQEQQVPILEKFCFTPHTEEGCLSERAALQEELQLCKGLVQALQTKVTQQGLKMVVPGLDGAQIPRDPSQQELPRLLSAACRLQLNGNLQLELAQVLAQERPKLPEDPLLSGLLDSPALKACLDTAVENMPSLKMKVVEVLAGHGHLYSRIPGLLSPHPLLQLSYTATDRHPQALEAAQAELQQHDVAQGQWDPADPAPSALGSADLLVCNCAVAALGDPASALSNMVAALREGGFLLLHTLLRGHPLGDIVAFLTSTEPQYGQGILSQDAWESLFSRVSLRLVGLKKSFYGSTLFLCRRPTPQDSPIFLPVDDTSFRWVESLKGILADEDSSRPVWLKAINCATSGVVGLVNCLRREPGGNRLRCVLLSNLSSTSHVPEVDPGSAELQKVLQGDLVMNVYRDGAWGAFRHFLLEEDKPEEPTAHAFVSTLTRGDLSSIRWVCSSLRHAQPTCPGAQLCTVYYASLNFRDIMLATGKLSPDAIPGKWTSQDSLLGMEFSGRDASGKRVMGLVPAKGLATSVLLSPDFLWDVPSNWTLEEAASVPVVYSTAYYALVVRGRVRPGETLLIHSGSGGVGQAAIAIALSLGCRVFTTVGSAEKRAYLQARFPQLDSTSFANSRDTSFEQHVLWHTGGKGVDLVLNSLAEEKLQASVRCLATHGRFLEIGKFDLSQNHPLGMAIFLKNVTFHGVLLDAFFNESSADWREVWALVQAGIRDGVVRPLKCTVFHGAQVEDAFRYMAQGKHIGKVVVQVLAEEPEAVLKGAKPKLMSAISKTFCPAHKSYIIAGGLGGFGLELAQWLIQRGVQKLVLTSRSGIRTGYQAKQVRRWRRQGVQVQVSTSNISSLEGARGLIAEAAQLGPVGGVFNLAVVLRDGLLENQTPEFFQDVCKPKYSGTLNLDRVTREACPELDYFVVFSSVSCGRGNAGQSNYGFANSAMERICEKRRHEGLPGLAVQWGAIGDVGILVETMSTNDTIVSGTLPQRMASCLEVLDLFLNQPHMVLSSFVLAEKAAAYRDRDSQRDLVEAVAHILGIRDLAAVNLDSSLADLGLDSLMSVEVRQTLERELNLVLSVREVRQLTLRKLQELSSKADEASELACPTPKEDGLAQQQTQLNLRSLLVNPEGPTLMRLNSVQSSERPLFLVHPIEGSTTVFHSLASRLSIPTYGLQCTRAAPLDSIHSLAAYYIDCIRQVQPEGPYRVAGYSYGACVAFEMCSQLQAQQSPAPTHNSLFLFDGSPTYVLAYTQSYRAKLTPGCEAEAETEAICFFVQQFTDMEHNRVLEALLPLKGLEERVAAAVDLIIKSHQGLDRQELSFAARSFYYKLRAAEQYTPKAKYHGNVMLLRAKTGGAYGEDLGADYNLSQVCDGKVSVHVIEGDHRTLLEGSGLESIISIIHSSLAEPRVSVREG
# Glucose-6-phosphate 1-dehydrogenase, sequence (P11413 whole entry): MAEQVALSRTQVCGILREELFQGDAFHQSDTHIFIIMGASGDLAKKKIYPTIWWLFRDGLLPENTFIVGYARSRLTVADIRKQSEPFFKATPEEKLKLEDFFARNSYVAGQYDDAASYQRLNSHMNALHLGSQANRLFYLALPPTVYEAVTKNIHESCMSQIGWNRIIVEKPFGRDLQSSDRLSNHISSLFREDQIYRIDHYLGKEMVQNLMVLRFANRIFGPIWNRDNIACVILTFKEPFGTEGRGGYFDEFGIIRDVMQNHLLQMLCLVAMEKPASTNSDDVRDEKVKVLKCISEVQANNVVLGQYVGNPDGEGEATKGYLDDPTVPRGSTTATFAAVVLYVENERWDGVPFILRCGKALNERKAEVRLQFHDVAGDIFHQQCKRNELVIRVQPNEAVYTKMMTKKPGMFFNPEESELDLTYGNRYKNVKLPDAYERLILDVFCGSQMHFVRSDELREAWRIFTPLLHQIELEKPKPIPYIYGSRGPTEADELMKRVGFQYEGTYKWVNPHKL
structure (smiles),measurement,setting,value
CC(NC(=O)c1ccc(N(C)C)cc1)C(c1cccs1)N1CCN(C)CC1 (configuration not stated),AC50,[1],1.24 µM (active)
CCOC(=O)c1ccc(NC(=O)c2[nH]cnc2C(=O)N[C@@H](CCCCNC(=O)OC(C)(C)C)C(=O)OC(C)(C)C)cc1,IC50,Fatty acid synthase [2],0.463 µM (active)
same,IC50,Fatty acid synthase [3],0.539 µM (active)
same,EC50,Streptococcus,55.6 µM (active)
same,EC50,[4],6.84 µM (active)
same,EC50,Streptokinase A,> 150 µM (not active)
ON=CN=C(S)Nc1ncc(C(F)(F)F)cc1Cl,IC50,[5],> 66 µM (inactive)
same,IC50,[6],> 66 µM (inactive)
CCOc1cc(C2C(C#N)=C(N)OC3=C2C(=O)CC(C)(C)C3)cc([N+](=O)[O-])c1O (configuration not stated),EC50,[7],> 300 µM (not active)
same,EC50,[8],> 300 µM (not active)
Cc1cccc(NC(=O)COc2cccc3c2CCN(C)C3=O)c1C,EC50,cells [9],> 350 µM (not active)
same,EC50,cells [10],> 350 µM (not active)
CN(C)S(=O)(=O)c1cccc(NC(=O)COc2ccccc2C(=O)Nc2ccccc2)c1,AC50,[11],20.1 µM (active)
same,AC50,[12],30.6 µM (active)
same,AC50,[13],22.9 µM (active)
O=C(CSc1ncnc2sc3c(c12)CCCC3)N1CCC(c2noc3ccc(F)cc23)CC1,EC50,[14],> 150 µM (not active)
same,EC50,BJ [15],> 150 µM (not active)
same,EC50,BJ [16],30.7 µM (active)
same,EC50,BJ [17],> 150 µM (not active)
O=C(COC(=O)CCc1ccccc1)Nc1cc([N+](=O)[O-])ccc1F,IC50,Fatty acid synthase [2],6.27 µM (active)
same,IC50,Fatty acid synthase [3],5.19 µM (active)
S=C(Nc1ccc(Cl)cc1)Nc1ccc2c[nH]nc2c1,EC50,cells [9],> 350 µM (not active)
same,EC50,cells [10],> 350 µM (not active)
CCOc1ccccc1CN1CCN(S(C)(=O)=O)CC1,EC50,cells [9],> 350 µM (not active)
same,EC50,cells [10],> 350 µM (not active)
CC(=O)c1cccc(NC(=S)NC(=O)c2ccc(Br)cc2)c1,IC50,[5],> 66 µM (inactive)
same,IC50,[6],> 66 µM (inactive)
O=[N+]([O-])c1ccc(C2=Nc3cc(Cl)ccc3OC2)cc1,EC50,[7],> 300 µM (inconclusive)
same,EC50,[8],90.7 µM (active)
COCCN1CN(S(=O)(=O)c2ccccc2)c2nc3ccccc3nc21,IC50,[5],55.4 µM (inactive)
same,IC50,[6],> 66 µM (inactive)
CC(NC(=O)COC(=O)c1cc([N+](=O)[O-])ccc1N1CCOCC1)c1ccc(F)cc1 (configuration not stated),IC50,Fatty acid synthase [2],1.48 µM (active)
same,IC50,Fatty acid synthase [3],1.95 µM (active)
O=C(O)c1ccccc1C(=O)c1ccc(N2CCOCC2)c([N+](=O)[O-])c1,EC50,[14],> 150 µM (not active)
same,EC50,BJ [15],> 150 µM (not active)
same,EC50,BJ [16],> 150 µM (not active)
same,EC50,BJ [17],> 150 µM (not active)
COc1ccc(N2CCN(C(=O)c3ccccc3N(C)S(=O)(=O)c3ccccc3)CC2)cc1,AC50,[1],8.08 µM (active)
NC(=O)CSc1nnc2ccc(-c3ccc(Cl)cc3)nn12,EC50,cells [9],> 350 µM (not active)
same,EC50,cells [10],> 350 µM (not active)
N#CCCN(C(=S)NC(=O)c1ccco1)c1ccccc1F,IC50,[5],> 66 µM (inactive)
same,IC50,[6],> 66 µM (inactive)
COc1ccc(N/N=C(\C#N)C(=N)N2CCCCC2)cc1,AC50,[1],0.077 µM (active)
O=C(CNC(=O)c1cccs1)OCC(=O)c1ccc([N+](=O)[O-])cc1,IC50,[18],> 80 µM (inactive)
COc1ccc(CNC(=O)c2ccc3c(c2)N(C)CCS3)cc1,AC50,[1],15.4 µM (active)
Cc1csc(NC(=O)c2ccc(OCC3CCCO3)cc2)n1 (configuration not stated),AC50,[11],2.55 µM (active)
same,AC50,[13],1.96 µM (active)
CC(C)(C)c1ccc(C(=O)N/C(=C\c2cccc([N+](=O)[O-])c2)C(=O)Nc2cccc(C(=O)O)c2)cc1,IC50,Fatty acid synthase [2],1.48 µM (active)
same,IC50,Fatty acid synthase [3],2.44 µM (active)
Cn1c(S)nnc1CNS(=O)(=O)c1ccc(Br)cc1,AC50,[1],4.95 µM (active)
S=C(NN=Cc1ccccn1)N(Cc1ccccn1)Cc1ccccn1,IC50,[18],> 80 µM (inactive)
same,IC50,Nonstructural protein 1,1.59 µM (active)
Cc1ccc(NC2CCCN(C(=O)c3ccnc(Cl)c3)C2)cc1C (configuration not stated),AC50,[1],3.32 µM (active)
O=C1C(Cl)=C(N2CCN(Cc3ccccc3)CC2)C(=O)N1c1cccc(C(F)(F)F)c1,IC50,[19],> 50 µM (inconclusive)
Cn1cc(CN2CCC(C(=O)Nc3cccc(-c4cscn4)c3)CC2)cn1,EC50,cells [9],> 350 µM (not active)
same,EC50,cells [10],> 350 µM (not active)
COc1ccc(S(=O)(=O)Nc2nc3ccccc3nc2Nc2cccc(C(=O)O)c2)cc1,IC50,Genome polyprotein,34.5 µM (active)
COc1ccc(CC2C(=O)N(C)C(=O)N(C)C2=O)c(OC)c1,IC50,[5],> 66 µM (inactive)
same,IC50,[6],> 66 µM (inactive)
C[C@H]1CN(C2=C(Cl)C(=O)N(c3ccc(Cl)nc3)C2=O)CCN1,IC50,[19],> 50 µM (inconclusive)
COc1ccc(Br)cc1/C=C/C(=O)NC(=S)Nc1ccc(Cl)c(C(=O)O)c1,EC50,Streptococcus,5.98 µM (active)
same,IC50,Genome polyprotein,46.9 µM (active)
same,EC50,[4],56.5 µM (active)
CCCN1C(=O)/C(=C\C=C2/Sc3ccccc3N2CC)SC1=S,EC50,[14],> 150 µM (not active)
same,EC50,BJ [15],> 150 µM (not active)
same,EC50,BJ [16],> 150 µM (not active)
same,EC50,BJ [17],> 150 µM (inconclusive)
O=C(O)Cc1ccc(NCc2ccccc2Cl)cc1,AC50,[1],4.81 µM (active)
Cc1ccc([C@@H]2CC=C(C(=O)O)[C@H](c3ccc(Br)cc3)N2S(=O)(=O)c2ccccc2C)cc1,IC50,Genome polyprotein,34 µM (active)
Nc1nc(-c2ccccc2)cn1/N=C/c1cccc([N+](=O)[O-])c1,IC50,[19],> 100 µM (not active)
COc1ccc(N2CCN(CCNC(=O)Nc3ccc([N+](=O)[O-])cc3OC)CC2)cc1,AC50,[1],2.24 µM (active)
same,IC50,Nonstructural protein 1,> 100 µM (active)
Cc1nc(NC(=O)CCl)sc1C(=O)N(C)C,EC50,[14],28.3 µM (active)
same,EC50,BJ [15],> 150 µM (not active)
same,EC50,BJ [16],> 150 µM (not active)
same,EC50,BJ [17],> 150 µM (not active)
CCOC(=O)N1CCC(NS(=O)(=O)c2cc3c(cc2Cl)NC(=O)CO3)CC1,CC50,[20],33.4 µM (active)
CCOC(=O)c1sc(NC(=O)CCCn2nc([N+](=O)[O-])c(Cl)c2C)c(C(=O)OCC)c1C,AC50,[21],15.4 µM (active)
same,AC50,[22],6.34 µM (active)
CCCCC1=CC2=CC(=O)C(C)(OC(=O)CC)C(=O)C2=CN1CCCCO (configuration not stated),IC50,[5],> 66 µM (inactive)
same,IC50,[6],> 66 µM (inactive)
CCc1n[nH]c(C(=O)N2CCCC(Nc3ccc(C(C)C)cc3)C2)c1C (configuration not stated),AC50,[1],3.61 µM (active)
